How the values were obtained:
[1] = test system: small flower umbrella sedge; assay: Test B flooded paddy test; assay type: in vivo, Cyperus difformis; conditions: 1000 g ai/ha, scale 0 to 100 (0 no effect, 100 complete control)
Method in brief: (§1)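 Plants grow to 1- to 4-leaf stage (2–18 cm) for postemergence spraying, or to 2-leaf stage for the paddy test. Formulated compound is applied. Greenhouse holding lasts 13–15 days. Response is scored visually relative to controls, 0 no effect to 100 complete control; a dash means no result.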

barnyardgrass [2] = assay: Test A pre-/postemergence herbicide test; assay type: in vivo, Echinochloa crus-galli
Method in brief: (§2)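 Plants are held in greenhouse about ten days after treatment, then compared with untreated controls and scored 0 (no effect) to 100 (complete control). Preemergence dosing is a directed soil spray on sown sandy loam; postemergence dosing is spray to runoff at 2–10 cm height.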

ducksalad = assay: Test B flooded paddy test; assay type: in vivo, Heteranthera limosa; conditions: 1000 g ai/ha, scale 0 to 100 (0 no effect, 100 complete control)
Method in brief: as §1

rice [3] = assay: Test B pre-/postemergence herbicide test; assay type: in vivo, Oryza sativa; conditions: 0 = no effect, 100 = complete control, preemergence
Method in brief: (§3)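 Seeds were planted and treated preemergence with compounds formulated in a non-phytotoxic solvent mixture containing surfactant, while plants at the 1- to 4-leaf stage (2 to 18 cm) received postemergence sprays. Flooded paddy plants were grown to the 2-leaf stage. After 13 to 15 days in a greenhouse, injury was visually rated 0–100 against untreated controls.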

cocklebur = assay: Test B pre-/postemergence herbicide test; assay type: in vivo, Xanthium strumarium; conditions: for Cocklebur plant response rating: postemergence
Method in brief: (§4)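 Species tested were Echinochloa crus-galli, Ipomoea coccinea, Xanthium strumarium and Oryza sativa, treated both before emergence and at the 1- to 4-leaf stage; rice and barnyardgrass were also tested under flooding at 2 leaves. Greenhouse incubation lasted 13–15 days before visual 0–100 scoring.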

large crabgrass [4] = assay: Test A pre-/postemergence herbicide test; assay type: in vivo, Digitaria sanguinalis
Method in brief: as §2

large crabgrass [5] = assay: Test B pre-/postemergence herbicide test; assay type: in vivo, Digitaria sanguinalis; conditions: for Crabgrass, Large plant response rating: postemergence
Method in brief: as §3

giant foxtail [6] = assay: Test B pre-/postemergence herbicide test; assay type: in vivo, Setaria faberi; conditions: for Foxtail, Giant plant response rating: postemergence
Method in brief: as §3

morningglory [7] = assay: Test B pre-/postemergence herbicide test; assay type: in vivo, Ipomoea coccinea; conditions: for Morningglory plant response rating: postemergence
Method in brief: as §4

corn = assay: Test B pre-/postemergence herbicide test; assay type: in vivo, Zea mays; conditions: for Corn plant response rating: postemergence
Method in brief: as §3

lambsquarters = assay: Test B pre-/postemergence herbicide test; assay type: in vivo, Chenopodium album; conditions: postemergence
Method in brief: as §3

rice [8] = assay: Test B flooded paddy test; assay type: in vivo, Oryza sativa; conditions: 1000 g ai/ha, scale 0 to 100 (0 no effect, 100 complete control)
Method in brief: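 Visual ratings, 0 (no effect) to 100 (complete control), made versus controls after 13–15 d greenhouse. Paddy plants treated at 2-leaf stage; postemergence plants at 1- to 4-leaf stage, 2–18 cm tall.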

Surinam grass = assay: Test B pre-/postemergence herbicide test; assay type: in vivo, Urochloa decumbens; conditions: for Surinam Grass plant response rating: postemergence
Method in brief: as §3

morningglory [9] = assay: Test A pre-/postemergence herbicide test; assay type: in vivo, Ipomoea spp.
Method in brief: as §2

barnyardgrass [10] = assay: Test B flooded paddy test; assay type: in vivo, Echinochloa crus-galli; conditions: 1000 g ai/ha, scale 0 to 100 (0 no effect, 100 complete control)
Method in brief: as §1

redroot pigweed = assay: Test A pre-/postemergence herbicide test; assay type: in vivo, Amaranthus retroflexus
Method in brief: as §2

blackgrass = assay: Test B postemergence herbicide test; assay type: in vivo, Alopecurus myosuroides; conditions: postemergence
Method in brief: as §1

pigweed = assay: Test B pre-/postemergence herbicide test; assay type: in vivo, Amaranthus retroflexus; conditions: for Pigweed plant response rating: postemergence
Method in brief: as §3

giant foxtail [11] = assay: Test A pre-/postemergence herbicide test; assay type: in vivo, Setaria faberi
Method in brief: as §2

velvetleaf [12] = assay: Test B pre-/postemergence herbicide test; assay type: in vivo, Abutilon theophrasti; conditions: for Velvetleaf plant response rating: postemergence
Method in brief: as §3

wild oat = assay: Test B postemergence herbicide test; assay type: in vivo, Avena fatua; conditions: postemergence
Method in brief: (§5)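 Treated at 2-leaf (paddy) or 1–4-leaf, 2–18 cm (postemergence); greenhouse 13–15 d; visual score vs control, 0 none to 100 complete control; dash = not tested.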

wheat = assay: Test B postemergence herbicide test; assay type: in vivo, Triticum aestivum; parameters: key to Wheat plant response rating: 0 = no effect, 100 = complete control; conditions: postemergence
Method in brief: as §5

barnyardgrass [13] = assay: Test B pre-/postemergence herbicide test; assay type: in vivo, Echinochloa crus-galli; conditions: for Barnyardgrass plant response rating: postemergence
Method in brief: as §4

velvetleaf [14] = assay: Test A pre-/postemergence herbicide test; assay type: in vivo, Abutilon theophrasti
Method in brief: as §2

[15] = Postemergence, 500 g ai/ha, 0 to 100 scale, 0 no effect, 100 complete control
[16] = Postemergence, 2000 g ai/ha, 0 to 100 scale, 0 no effect, 100 complete control
[17] = Preemergence, 2000 g ai/ha, visual rating, 0 to 100 scale (0 no effect, 100 complete control)
[18] = preemergence, 500 g ai/ha, visual injury, 0 to 100 scale (0 no effect, 100 complete control)
[19] = 125 g ai/ha, 0 = no effect, 100 = complete control, preemergence
[20] = 500 g ai/ha, visual rating, 0 = no effect, 100 = complete control, preemergence
[21] = 125 g ai/ha, visual rating, scale 0 (no effect) to 100 (complete control)
[22] = 500 g ai/ha, scale 0 to 100, 0 is no effect, 100 is complete control

For `CCn1nc(C(C)(C)C)cc1C(=O)Nc1cc(C(=O)N(C)C)c(F)cc1F` [Compound 270], the “Sedge, Umbrella plant response rating” value [1] was 60, the “Barnyardgrass plant response rating” value (barnyardgrass [2]; [15]) was 0 and the “Plant response rating, Barnyardgrass” value (barnyardgrass [2]; [16]) was 30. The “Barnyardgrass plant response rating” value (barnyardgrass [2]; [17]) was 90, the “Barnyardgrass plant response rating” value (barnyardgrass [2]; [18]) was 60 and the “Ducksalad plant response rating” value (ducksalad) was 70. For the same compound, the “Rice plant response rating (0 to 100 scale)” value (rice [3]; 125 g ai/ha) was 0, the “Plant response rating, Rice” value (rice [3]; 500 g ai/ha, visual rating) was 60 and the “Cocklebur plant response rating (0 to 100 scale)” value (cocklebur; [19]) was 0. The “Plant response rating, Cocklebur” value (cocklebur; [20]) was 0, the “Cocklebur plant response rating” value (cocklebur; [21]) was 0 and the “Cocklebur plant response rating” value (cocklebur; [22]) was 0. The “Crabgrass, Large plant response rating” value (large crabgrass [4]; [15]) was 0, the “Plant response rating, Crabgrass, Large” value (large crabgrass [4]; [16]) was 10 and the “Crabgrass, Large plant response rating” value (large crabgrass [4]; [17]) was 35. For the same compound, the “Crabgrass, Large plant response rating” value (large crabgrass [4]; [18]) was 5, the “Crabgrass, Large plant response rating (0 to 100 scale)” value (large crabgrass [5]; [19]) was 0 and the “Plant response rating, Crabgrass, Large” value (large crabgrass [5]; [20]) was 20. For the same compound, the “Crabgrass, Large plant response rating” value (large crabgrass [5]; [21]) was 0, the “Crabgrass, Large plant response rating” value (large crabgrass [5]; [22]) was 0 and the “Foxtail, Giant plant response rating (0 to 100 scale)” value (giant foxtail [6]; [19]) was 0. The “Plant response rating, Foxtail, Giant” value (giant foxtail [6]; [20]) was 50, the “Foxtail, Giant plant response rating” value (giant foxtail [6]; [21]) was 0 and the “Foxtail, Giant plant response rating” value (giant foxtail [6]; [22]) was 0. For the same compound, the “Morningglory plant response rating (0 to 100 scale)” value (morningglory [7]; [19]) was 0, the “Plant response rating, Morningglory” value (morningglory [7]; [20]) was 0 and the “Morningglory plant response rating” value (morningglory [7]; [21]) was 0. The “Morningglory plant response rating” value (morningglory [7]; [22]) was 10, the “Corn plant response rating (0 to 100 scale)” value (corn; [19]) was 0 and the “Plant response rating, Corn” value (corn; [20]) was 50. For the same compound, the “Corn plant response rating” value (corn; [21]) was 0, the “Corn plant response rating” value (corn; [22]) was 10 and the “Lambsquarters plant response rating” value (lambsquarters; [21]) was 0. For the same compound, the “Lambsquarters plant response rating” value (lambsquarters; [22]) was 10, the “Rice plant response rating” value (rice [8]) was 70 and the “Surinam Grass plant response rating (0 to 100 scale)” value (Surinam grass; [19]) was 0. For the same compound, the “Plant response rating, Surinam Grass” value (Surinam grass; [20]) was 20, the “Surinam Grass plant response rating” value (Surinam grass; [21]) was 0 and the “Surinam Grass plant response rating” value (Surinam grass; [22]) was 10. The “Morningglory plant response rating” value (morningglory [9]; [15]) was 20, the “Plant response rating, Morningglory” value (morningglory [9]; [16]) was 20 and the “Morningglory plant response rating” value (morningglory [9]; [17]) was 30. For the same compound, the “Morningglory plant response rating” value (morningglory [9]; [18]) was 0, the “Barnyardgrass plant response rating” value (barnyardgrass [10]) was 50 and the “Pigweed plant response rating” value (redroot pigweed; [15]) was 20. The “Plant response rating, Pigweed” value (redroot pigweed; [16]) was 0, the “Pigweed plant response rating” value (redroot pigweed; [17]) was 85 and the “Pigweed plant response rating” value (redroot pigweed; [18]) was 15. For the same compound, the “Blackgrass plant response rating” value (blackgrass; [21]) was 0, the “Blackgrass plant response rating” value (blackgrass; [22]) was 20 and the “Pigweed plant response rating (0 to 100 scale)” value (pigweed; [19]) was 0. The “Pigweed plant response rating” value (pigweed; [21]) was 0, the “Pigweed plant response rating” value (pigweed; [22]) was 0 and the “Foxtail, Giant plant response rating” value (giant foxtail [11]; [15]) was 0. For the same compound, the “Plant response rating, Foxtail, Giant” value (giant foxtail [11]; [16]) was 0, the “Foxtail, Giant plant response rating” value (giant foxtail [11]; [17]) was 70 and the “Foxtail, Giant plant response rating” value (giant foxtail [11]; [18]) was 20. The “Velvetleaf plant response rating (0 to 100 scale)” value (velvetleaf [12]; [19]) was 50, the “Plant response rating, Velvetleaf” value (velvetleaf [12]; [20]) was 70 and the “Velvetleaf plant response rating” value (velvetleaf [12]; [21]) was 0. For the same compound, the “Velvetleaf plant response rating” value (velvetleaf [12]; [22]) was 0, the “Oat, Wild plant response rating” value (wild oat; [21]) was 0 and the “Oat, Wild plant response rating” value (wild oat; [22]) was 0. For the same compound, the “Wheat plant response rating” value (wheat; [21]) was 0, the “Wheat plant response rating” value (wheat; [22]) was 0 and the “Barnyardgrass plant response rating (0 to 100 scale)” value (barnyardgrass [13]; [19]) was 0. For the same compound, the “Plant response rating, Barnyardgrass” value (barnyardgrass [13]; [20]) was 50, the “Barnyardgrass plant response rating” value (barnyardgrass [13]; [21]) was 0 and the “Barnyardgrass plant response rating” value (barnyardgrass [13]; [22]) was 0. The “Velvetleaf plant response rating” value (velvetleaf [14]; [15]) was 15, the “Plant response rating, Velvetleaf” value (velvetleaf [14]; [16]) was 25 and the “Velvetleaf plant response rating” value (velvetleaf [14]; [17]) was 55. For the same compound, the “Velvetleaf plant response rating” value (velvetleaf [14]; [18]) was 30.

— US20060069132A1, “Azolecarboxamide herbicides” (priority 2004, published 2006)
